In the test the target is aryl hydrocarbon receptor (AhR) (Homo sapiens, UniProt P35869). As to the kind of experiment: EROD induction in Caco-2 cells (endogenous AhR), abolished by AhR antagonist. It is filed as cell-based.

`Clc1cc2c(cc1Cl)Oc1cc(Cl)c(Cl)cc1O2` [2,3,7,8-TCDD, 2,3,7,8-tetrachlorodibenzo-p-dioxin] yielded an EC50 of 0.102 nM.

Usually EC50 stands for the concentration at which the effect is half-maximal. Low values mean higher potency in that assay, high ones lower potency in that assay.
